{"source": "paper PMC6501426", "about": "(Clinical Epigenetics, 2019)", "key": {"[1]": {"system": "methylated CMV promoter-driven luciferase reporter in KG-1 cells", "assay": "CMV-luc assay in KG-1 cells", "format": "cell-based, human", "settings": "KG-1 CMV-luc", "method": "The assay was carried out as described by Rilova et al.. The KG-1 cell line was stably transfected with the luciferase firefly (Luc^+ from pGL3 by Promega, Madison, WI, USA) reporter gene under the control of a methylated CMV promoter (from pEGFP-N1 by Clontech) and selected for the maintenance of the methylation of CMV and luciferase expression silencing (KG-1 CMV-luc). The stably integrated KG-1 CMV-luc cells are cultivated in RPMI-1640 medium (Lonza, Strasbourg, France), supplemented with 10% FCS (Lonza, Strasbourg, France) and 0.5 mg/mL of geneticin (Sigma-Aldrich, Saint-Quentin Fallavier, France), under 5% CO2, at 37 °C and seeded at 20,000 cells per well in 96-well plates. After 5 or 24 h of incubation in the presence of compounds or the solvent DMSO, the induction of the promoter is measured by quantification of luciferase with the Brite-lite assay system (PerkinElmer, Villebon-sur-Yvette, France) according to the manufacturer’s protocol. The luminescence is measured on an EnVision™ Multilabel Plate Reader (PerkinElmer, Villebon-sur-Yvette, France), and the data are expressed as fold induction compared to DMSO control. The mean of 2–4 experiments and its standard error are reported.\nAfterwards, MC3353 was tested in KG-1 leukemia cells for its ability to reactivate gene expression in a stably integrated luciferase reporter construction under the control of a CMV promoter inhibited by DNA methylation (CMV-luc assay). After 5 or 24 h of incubation in the presence of drugs at the indicated concentrations, the luciferase signal was measured and normalized to the value of the non-treated cells (Table 2). Since the CMV-luc assay is highly compromised when the tested compounds induce cell death, the cytotoxicity of MC3353 against KG-1 cells at 5 and 24 h was determined in parallel. MC3353 was highly toxic for KG-1 cells after 24 h of treatment starting from a concentration of 1 μM (Additional file 1: Table S1 and indicated in stars in Table 2)."}, "[2]": {"system": "KG-1, U-937, RAJI, PC-3, MDA-MB-231 cancer cells", "assay": "Viability in panel of cancer cells", "format": "cell-based", "settings": "Homo sapiens, 48 h of treatment, range over KG-1, U-937, RAJI, read-out: IC50 values, proliferation/viability in cancer cell panel", "method": "(§1) Proliferation and viability of U-937, KG-1, RAJI, PC-3, MDA-MB-231, RPMI1788, PBMCs, and PHA_PBMCs were assessed by trypan blue exclusion assays at the indicated time points. Nuclear morphology changes associated with apoptosis and necrosis were evaluated by fluorescence microscopy after Hoechst and propidium iodide (PI) staining as previously described.\n(§2) IC50 values of compounds against cellular viability were determined by using nonlinear regression fitting curves with GraphPad Prism 8 or CalcuSyn software The t test used for statistical analyses was performed with GraphPad Prism 8. All the tests were one-tailed, and a p value < 0.05 was considered statistically significant."}, "[3]": {"system": "PBMCs (non-proliferating, healthy donors)", "assay": "Cell viability, trypan blue exclusion", "format": "cell-based", "settings": "Homo sapiens, PBMC, 48 h of treatment, read-out: IC50 ± SD, cell viability, PBMCs", "method": "(§3) Peripheral blood mononuclear cells (PBMCs) from healthy donors were isolated as previously described. Freshly isolated PBMCs were either cultured and treated at 1.10^6 cells/mL (non-proliferating PBMCs) or stimulated with phytohaemoagglutinin (PHA) and interleukin (IL)-2 (called PHA_PBMCs) to induce blastogenesis in T lymphocytes before treatments as previously described. Briefly, freshly isolated PBMCs were seeded at a concentration of 2.10^6 cells/mL in RMPI 1640 supplemented with 1% antibiotic-antimycotic (Lonza, Verviers, Belgium) and 10% human AB serum (Corning, Fisher scientific, Merelbeke, Belgium). After overnight incubation, floating lymphoid cells were collected and seeded at 1.10^6 cells/mL in RMPI 1640 supplemented with 1% antibiotic-antimycotic, 5% FBS, 10% human AB serum, 1 μg/mL PHA (Gentaur, Kampenhout, Belgium), 50 U/mL IL-2 (Roche, Prophac, Luxembourg City, Luxembourg), 1% non-essential amino acids (Invitrogen, Luxembourg), 1% HEPES (Invitrogen, Luxembourg), 1% sodium pyruvate (Invitrogen, Luxembourg), and 0.1% β-mercaptoethanol (Invitrogen, Luxembourg). After 72 h, the cells were seeded at 1.10^6 cells/mL in the same mitogenic growth medium described just above and treated with test compounds.\nas §1, §2"}, "[4]": {"system": "PHA_PBMCs (phytohemagglutinin-stimulated PBMCs)", "assay": "Cell viability, trypan blue exclusion", "format": "cell-based", "settings": "Homo sapiens, PBMC; 48 h of treatment; proliferating, PHA-stimulated; read-out: IC50 ± SD, cell viability, PHA_PBMCs", "method": "as §3, §1, §2"}, "[5]": {"system": "E-cadherin protein in PC-3 cells", "assay": "Western blot of E-cadherin in PC-3", "format": "cell-based, human", "settings": "1 μM, 24 h", "text": "Cells were lysed in Laemmli buffer; subsequently, the proteins were resolved by sodium dodecyl sulfate-polyacrylamide gel electrophoresis and transferred to a 0.45-μm nitrocellulose membrane (Bio-Rad Laboratories, Hercules, CA). The following primary antibodies were used for immunoblotting: α-E-cadherin (BD Transduction Laboratories, Franklin Lakes, NJ), α-MMP2 (Abcam), α-DNMT3a (Santa Cruz Biotechnologies, Dallas, TX), and α-GAPDH (Millipore Corp., Bedford, MA), used as a loading control. The immune complexes were detected with horseradish peroxidase-conjugated species-specific secondary antiserum (Bio-Rad Laboratories, Milan, Italy) then by enhanced chemiluminescence reaction (Bio-Rad Laboratories, Milan, Italy). Densitometric analysis of protein expression was performed by using the Fiji ImageJ image processing package.\nFig. 8 Effects of MC3353 on E-cadherin and MMP2 protein expression levels in PC-3 cancer cells. Cells were treated with vehicle (DMSO) used as control (CTR) or MC3353 for 24 h. a E-cadherin and MMP2 protein detection by western blot. GAPDH was used as a loading control. Blots are representative of three independent experiments. b Densitometric analysis of E-cadherin and MMP2 protein expression. Significance is represented as *p < 0.05 related to the control groups. Data were obtained from three independent experiments and expressed as mean ± SEM"}}}
{"smiles": "O=C(Nc1ccc(NC(=O)c2ccc(Nc3ccnc4ccccc34)cc2)cc1)OCc1ccccc1", "note": "[MC3353, Benzyl (4-(4-(quinolin-4-ylamino)benzamido)phenyl)carbamate]", "values": [{"measurement": "Luciferase expression (fold ± SD)", "setting": "[1]; 0.1 μM, 5 h", "result": "1.0 ± 0.05", "unit": "fold"}, {"measurement": "Luciferase expression (fold ± SD)", "setting": "[1]; 0.1 μM, 24 h", "result": "1.1 ± 0.1", "unit": "fold"}, {"measurement": "Luciferase expression (fold ± SD)", "setting": "[1]; 1 μM, 5 h", "result": "5.8 ± 0.9", "unit": "fold"}, {"measurement": "Luciferase expression (fold ± SD)", "setting": "[1]; 1 μM, 24 h", "result": "4.4 ± 3.5", "unit": "fold"}, {"measurement": "Luciferase expression (fold ± SD)", "setting": "[1]; 5 μM, 5 h", "result": "6.7 ± 0.8", "unit": "fold"}, {"measurement": "IC50", "setting": "[2]", "result": "0.3 to 0.9", "unit": "µM"}, {"measurement": "IC50", "setting": "[3]", "result": "8.9 ± 4.2", "unit": "µM"}, {"measurement": "IC50", "setting": "[4]", "result": "4.6 ± 0.5", "unit": "µM"}, {"measurement": "E-cadherin protein expression (western blot, densitometry), PC-3", "setting": "[5]", "result": "significantly induced E-cadherin expression"}]}
